Test results as given in US20080176857A1, “4-Piperazinnylthieno[2,3-d]Pyrimidine Compounds as Platelet Aggregation Inhibitors” (priority 2005, published 2008).
Where “and” joins values, the source holds several entries; their conditions need not be identical. Equal values may be shown once.

Target: P2Y12 receptor (Homo sapiens, UniProt Q9H244)
Test: [33P]-2MeS-ADP binding to recombinant human P2Y12 membranes (Assay 3)
Set-up: expressed in transfected cells; host or cells: HEK cells
Conditions: for IC50 / Ki: HEK cell membranes expressing human P2Y12, competition with 33P 2MeS-ADP
Method: 3. Human P2Y12 Recombinant Cell Membrane Binding Assay with ^33P 2MeS-ADP.
The ability of a test compound to bind to the P2Y12 receptor was evaluated in a recombinant cell membrane binding assay. In this competitive binding assay, the test compound competed against a radiolabelled agonist for binding to the P2Y12 receptor, expressed on the cell membrane. Inhibition of binding of the labeled material was measured and correlated to the amount and potency of the test compound. Data from this assay are presented in Table F. This binding assay is a modification of the procedure in Takasaki, J. et. al, Mol. Pharmacol., 2001, Vol. 60, pg. 432.
HEK cells were transfected with the pDONR201P2Y12 vector and cultured in MEM with GlutaMAX I, Earle's salts, 25 mM HEPES (Gibco # 42360-032) containing 10% dialyzed FBS (Gibco # 26400-044), 100 μM nonessential amino acids (Gibco # 11140-050), 1 mM sodium pyruvate (Gibco # 11360-070), 0.05% geneticin (Gibco #10131-027), 3 μg/mL blasticidin (Fluka brand from Sigma # 15205), and 0.5 μg/mL puromycin (Sigma # P-8833).
Confluent cells were washed once with cold DPBS (Gibco # 14190-136). Fresh DPBS was added and the cells were scraped and centrifuged at 500×g for 5 minutes at 4° C. The cell pellets were resuspended in TEE buffer (25 mM Tris, 5 mM EDTA, 5 mM EGTA) containing 1 protease inhibitor cocktail tablet (Roche # 1 873 580) per 50 mL (called TEE+Complete) and can be flash frozen at this point.
In one embodiment, frozen cell pellets were used to prepare the membranes. In that embodiment, the frozen cell pellets were thawed on ice. In another embodiment, cell pellets may be used without flash freezing before moving on to the next step.
Cell pellets were resuspended in TEE buffer+Complete and homogenized in a glass dounce for 12 strokes. The cell suspension was centrifuged at 500×g for 5 minutes at 4° C. The supernatant was saved and centrifuged at 20,000×g for 20 minutes at 4° C. This supernatant was discarded and the cell pellet resuspended in TEE buffer+Complete and homogenized in a glass dounce for 12 strokes. This suspension was centrifuged at 20,000×g for 20 minutes at 4° C. and the supernatant discarded. The pellet was resuspended in assay buffer (50 mM Tris, 100 mM NaCl, 1 mM EDTA) containing one protease inhibitor cocktail tablet per 50 mL, and can be flash frozen as 1 mL aliquots at this point.
Dry compounds were diluted as 10 mM DMSO stocks and tested in a seven-point, three-fold dilution series run in triplicate beginning at 10 μM, final concentration. A 1 mM DMSO intermediate stock was made in a dilution plate and from this the seven dilutions were made to 5× the final concentration in assay buffer containing 0.02% BSA.
The plates were incubated at room temperature for 1 hour. The reaction was stopped using a cell harvester to transfer the reaction mixture onto GF/B UniFilter plates (Perkin Elmer # 6005177), and washed three times with wash buffer (50 mM Tris), filtering between each wash. The filter plates were dried for approximately 20 minutes in an oven at 50° C. Back seals were adhered to the filter plates and 25 uL of Microscint 20 scintillation fluid (Perkin Elmer # 6013621) were added. The filter plates were sealed, shaken for 30 minutes, and counted on a Top Count. Data were analyzed using a four-parameter curve fit with a fixed minimum and maximum experimentally defined as the average positive and negative controls on each plate, and with a hill slope equal to one.
The table below presents the IC50, Ki, and percent inhibition values for compounds tested in either washed human platelets membrane binding assay (assay #1 above) or recombinant cell membrane binding assay (Assay #3, above). Example number refers to the compound prepared as described in the example noted in the section Working Examples, above. The highest concentration of candidate compound tested is listed for each experimental run presented. […]

[1] = at highest concentration tested, 10 μM

Sequence of P2Y12 receptor (Q9H244 whole entry): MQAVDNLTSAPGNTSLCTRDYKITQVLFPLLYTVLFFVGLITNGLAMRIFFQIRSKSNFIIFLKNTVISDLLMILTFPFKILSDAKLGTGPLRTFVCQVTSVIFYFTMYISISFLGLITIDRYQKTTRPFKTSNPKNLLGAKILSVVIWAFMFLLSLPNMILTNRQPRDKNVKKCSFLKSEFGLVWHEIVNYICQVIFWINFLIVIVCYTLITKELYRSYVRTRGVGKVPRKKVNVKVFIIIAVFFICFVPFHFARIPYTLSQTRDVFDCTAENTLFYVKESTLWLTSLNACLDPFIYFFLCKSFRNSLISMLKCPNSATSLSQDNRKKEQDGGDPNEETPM

SMILES | IC50 | Ki | inhibition at 10 µM [1] [%] | % Inhibition [1] [%]
CCc1cc2c(N3CCN(C(=O)c4ccc(-c5ccccc5)cc4)CC3)nc(SCCO)nc2s1 [Example 32, 2-({4-[4-(1′-Biphenyl-4-ylcarbonyl)piperazin-1-yl]-6-ethylthieno[2,3-d]pyrimidin-2-yl}thio)ethanol] | 52 nM | 29 nM | 93.2 | –
C#CCCCC(=O)N1CCN(c2nc(SCC(=O)OC)nc3sc(CC)cc23)CC1 [Example 35, Methyl {[6-ethyl-4-(4-hex-5-ynoylpiperazin-1-yl)thieno[2,3-d]pyrimidin-2-yl]thio}acetate] | > 10000 nM | > 6700 nM | -4.55 | –
C#CCCCCC(=O)N1CCN(c2nc(SCC(=O)OC)nc3sc(CC)cc23)CC1 [Example 36, Methyl {[6-ethyl-4-(4-hept-6-ynoylpiperazin-1-yl)thieno[2,3-d]pyrimidin-2-yl]thio}acetate] | 220 nM | 150 nM | 97.6 | –
C#CCCC(=O)N1CCN(c2nc(SCC(=O)OC)nc3sc(CC)cc23)CC1 [Example 37, Methyl {[6-ethyl-4-(4-pent-4-ynoylpiperazin-1-yl)thieno[2,3-d]pyrimidin-2-yl]thio}acetate] | 1250 nM | 840 nM | 78.3 | –
CCc1cc2c(N3CCN(C(=O)CC(C)CC(C)(C)C)CC3)nc(SCC(=O)OC)nc2s1 (stereo not shown) [Example 39, Methyl ({6-ethyl-4-[4-(3,5,5-trimethylhexanoyl)piperazin-1-yl]thieno[2,3-d]pyrimidin-2-yl}thio)acetate] | > 10000 nM | > 6700 nM | 43.1 | –
CCc1cc2c(N3CCN(C(=O)CCC4CCCC4)CC3)nc(SCC(=O)OC)nc2s1 [Example 40, Methyl ({4-[4-(3-cyclopentylpropanoyl)piperazin-1-yl]-6-ethylthieno[2,3-d]pyrimidin-2-yl}thio)acetate] | 4150 nM | 2760 nM | 59 | –
CCc1cc2c(N3CCN(C(=O)CCCC(=O)OC)CC3)nc(SCC(=O)OC)nc2s1 [Example 41, Methyl 5-(4-{6-ethyl-2-[(2-methoxy-2-oxoethyl)thio]thieno[2,3-d]pyrimidin-4-yl}piperazin-1-yl)-5-oxopentanoate] | 2570 nM | 1720 nM | 71.6 | –
CCc1cc2c(N3CCN(C(=O)CCC(=O)OC)CC3)nc(SCC(=O)OC)nc2s1 [Example 42, Methyl 4-(4-{6-ethyl-2-[(2-methoxy-2-oxoethyl)thio]thieno[2,3-d]pyrimidin-4-yl}piperazin-1-yl)-4-oxobutanoate] | 5740 nM | 3830 nM | 52.3 | –
CCc1cc2c(N3CCN(C(=O)CCCCC(=O)OC)CC3)nc(SCC(=O)OC)nc2s1 [Example 43, Methyl 6-(4-{6-ethyl-2-[(2-methoxy-2-oxoethyl)thio]thieno[2,3-d]pyrimidin-4-yl}piperazin-1-yl)-6-oxohexanoate] | 2380 nM | 1580 nM | 78.2 | –
CCc1cc2c(N3CCN(C(=O)CC(=O)OC)CC3)nc(SCC(=O)OC)nc2s1 [Example 44, Methyl 3-(4-{6-ethyl-2-[(2-methoxy-2-oxoethyl)thio]thieno[2,3-d]pyrimidin-4-yl}piperazin-1-yl)-3-oxopropanoate] | 4030 nM | 2690 nM | 63.6 | –
CCc1cc2c(N3CCN(C(=O)c4ccc(-n5cccn5)cc4)CC3)nc(SCC(=O)OC)nc2s1 [Example 48, Methyl [(6-ethyl-4-{4-[4-(1H-pyrazol-1-yl)benzoyl]piperazin-1-yl}thieno[2,3-d]pyrimidin-2-yl)thio]acetate] | 190 nM | 130 nM | 95.8 | –
CCc1cc2c(N3CCN(C(=O)c4ccc(OC(F)(F)F)cc4)CC3)nc(SCC(=O)OC)nc2s1 [Example 49, Methyl [(6-ethyl-4-{4-[4-(trifluoromethoxy)benzoyl]piperazin-1-yl}thieno[2,3-d]pyrimidin-2-yl)thio]acetate] | 5520 nM | 3680 nM | 56.8 | –

Second part, the molecule after the results:

IC50 | Ki | inhibition at 10 µM [1] [%] | % Inhibition [1] [%] | SMILES
600 nM | 400 nM | 77.2 | – | CCc1cc2c(N3CCN(C(=O)C4COc5ccccc5O4)CC3)nc(SCC(=O)OC)nc2s1 (stereo not shown) [Example 38, Methyl ({4-[4-(2,3-dihydro-1,4-benzodioxin-2-ylcarbonyl)piperazin-1-yl]-6-ethylthieno[2,3-d]pyrimidin-2-yl}thio)acetate]
> 10000 nM | > 6700 nM | 42.5 | – | CCc1cc2c(N3CCN(C(=O)c4ccc(C)cc4)CC3)nc(SCC(=O)OC)nc2s1 [Example 45, Methyl ({6-ethyl-4-[4-(4-methylbenzoyl)piperazin-1-yl]thieno[2,3-d]pyrimidin-2-yl}thio)acetate]
> 10000 nM | > 6700 nM | 41.8 | – | CCc1cc2c(N3CCN(C(=O)c4ccc(C(F)(F)F)cc4)CC3)nc(SCC(=O)OC)nc2s1 [Example 46, Methyl [(6-ethyl-4-{4-[4-(trifluoromethyl)benzoyl]piperazin-1-yl}thieno[2,3-d]pyrimidin-2-yl)thio]acetate]
5440 nM | 3630 nM | 48.6 | – | CCc1cc2c(N3CCN(C(=O)/C=C/c4ccccc4)CC3)nc(SCC(=O)OC)nc2s1 [Example 47, Methyl [(6-ethyl-4-{4-[(2E)-3-phenylprop-2-enoyl]piperazin-1-yl}thieno[2,3-d]pyrimidin-2-yl)thio]acetate]
> 10000 nM | > 6700 nM | 40.3 | – | CCc1cc2c(N3CCN(C(=O)c4cccc5ccccc45)CC3)nc(SCC(=O)OC)nc2s1 [Example 50, Methyl ({6-ethyl-4-[4-(1-naphthoyl)piperazin-1-yl]thieno[2,3-d]pyrimidin-2-yl}thio)acetate]
1580 nM | 1050 nM | 74.2 | – | CCc1cc2c(N3CCN(C(=O)c4cc(F)cc(F)c4)CC3)nc(SCC(=O)OC)nc2s1 [Example 51, Methyl ({4-[4-(3,5-difluorobenzoyl)piperazin-1-yl]-6-ethylthieno[2,3-d]pyrimidin-2-yl}thio)acetate]
2670 nM | 1780 nM | 67.7 | – | CCc1cc2c(N3CCN(C(=O)c4ccc(C#N)cc4)CC3)nc(SCC(=O)OC)nc2s1 [Example 52, Methyl ({4-[4-(4-cyanobenzoyl)piperazin-1-yl]-6-ethylthieno[2,3-d]pyrimidin-2-yl}thio)acetate]
2330 nM | 1560 nM | 68.8 | – | CCc1cc2c(N3CCN(C(=O)c4cc(F)ccc4F)CC3)nc(SCC(=O)OC)nc2s1 [Example 53, Methyl ({4-[4-(2,5-difluorobenzoyl)piperazin-1-yl]-6-ethylthieno[2,3-d]pyrimidin-2-yl}thio)acetate]
6190 nM and 4440 nM | 3560 nM and 2960 nM | 47.8 | 61.77 | CCc1cc2c(N3CCN(C(=O)c4ccc(N(C)C)cc4)CC3)nc(SCC(=O)OC)nc2s1 [Example 54, Methyl [(4-{4-[4-(dimethylamino)benzoyl]piperazin-1-yl}-6-ethylthieno[2,3-d]pyrimidin-2-yl)thio]acetate]
1470 nM | 980 nM | 61.2 | – | CCc1cc2c(N3CCN(C(=O)c4ccc5ccccc5c4)CC3)nc(SCC(=O)OC)nc2s1 [Example 55, Methyl ({6-ethyl-4-[4-(2-naphthoyl)piperazin-1-yl]thieno[2,3-d]pyrimidin-2-yl}thio)acetate]
